Test system: MDA-MB-231 multicell spheroids, viability
Experiment: Anticancer human tumor MDA-MB-231 cell line growth inhibition [PI3K];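 further: spheroids exposed to agents for seven days before reading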;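 on viability, T/C: percent of vehicle control luminescence with DMSO treated spheroids as 100%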
Details: for IC50: curve of first compound; for viability, T/C: stronger effect = lower value
Procedure, shortened: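 High-throughput combination screen: PI3K inhibitors crossed with targeted small molecules on complex spheroids of tumor cells, HUVEC and MSCs at 37 degrees C, 5% CO2. Top concentration was at or near clinical Cmax (otherwise 10 microM), with half-log decrements.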

[1] = second compound 0.00316 µM, first compound 0.0316 µM
[2] = second compound 0.00316 µM, first compound 0.1 µM
[3] = second compound 0.00316 µM, first compound 0.316 µM
[4] = second compound 0.00316 µM, first compound 1 µM
[5] = second compound 0.00316 µM, first compound 3.16 µM
[6] = second compound 0.00316 µM, first compound 10 µM
[7] = second compound 0.01 µM, first compound 0.0316 µM
[8] = second compound 0.01 µM, first compound 0.1 µM
[9] = second compound 0.01 µM, first compound 0.316 µM
[10] = second compound 0.01 µM, first compound 1 µM
[11] = second compound 0.01 µM, first compound 3.16 µM
[12] = second compound 0.01 µM, first compound 10 µM
[13] = second compound 0.0316 µM, first compound 0.0316 µM
[14] = second compound 0.0316 µM, first compound 0.1 µM
[15] = second compound 0.0316 µM, first compound 0.316 µM
[16] = second compound 0.0316 µM, first compound 1 µM
[17] = second compound 0.0316 µM, first compound 3.16 µM
[18] = second compound 0.0316 µM, first compound 10 µM
[19] = second compound 0.1 µM, first compound 0.0316 µM
[20] = second compound 0.1 µM, first compound 0.1 µM
[21] = second compound 0.1 µM, first compound 0.316 µM
[22] = second compound 0.1 µM, first compound 1 µM
[23] = second compound 0.1 µM, first compound 3.16 µM
[24] = second compound 0.1 µM, first compound 10 µM
[25] = second compound 0.316 µM, first compound 0.0316 µM
[26] = second compound 0.316 µM, first compound 0.1 µM
[27] = second compound 0.316 µM, first compound 0.316 µM
[28] = second compound 0.316 µM, first compound 1 µM
[29] = second compound 0.316 µM, first compound 3.16 µM
[30] = second compound 0.316 µM, first compound 10 µM
[31] = second compound 1 µM, first compound 0.0316 µM
[32] = second compound 1 µM, first compound 0.1 µM
[33] = second compound 1 µM, first compound 0.316 µM
[34] = second compound 1 µM, first compound 1 µM
[35] = second compound 1 µM, first compound 3.16 µM
[36] = second compound 1 µM, first compound 10 µM

Compound: C=CC(=O)N1CCN(c2nc(=O)n(-c3c(C)ccnc3C(C)C)c3nc(-c4c(O)cccc4F)c(F)cc23)C(C)C1 (stereo not drawn) + COc1c(OCCCN2CCOCC2)ccc2c3n(c(=NC(=O)c4cnc(N)nc4)nc12)CCN3
- IC50 (second compound 0.00316 µM): > 10 µM
- IC50 (second compound 0.01 µM): > 10 µM
- IC50 (second compound 0.0316 µM): > 10 µM
- IC50 (second compound 0.1 µM): < 0.0316 µM
- IC50 (second compound 0.316 µM): < 0.0316 µM
- IC50 (second compound 1 µM): < 0.0316 µM
- viability, T/C [1]: 94.2%
- viability, T/C [2]: 91.6%
- viability, T/C [3]: 104%
- viability, T/C [4]: 112%
- viability, T/C [5]: 122%
- viability, T/C [6]: 105%
- viability, T/C [7]: 83.5%
- viability, T/C [8]: 82.7%
- viability, T/C [9]: 85.4%
- viability, T/C [10]: 93.2%
- viability, T/C [11]: 103%
- viability, T/C [12]: 85.8%
- viability, T/C [13]: 59.1%
- viability, T/C [14]: 58.9%
- viability, T/C [15]: 61.6%
- viability, T/C [16]: 62.5%
- viability, T/C [17]: 64.8%
- viability, T/C [18]: 48%
- viability, T/C [19]: 42.3%
- viability, T/C [20]: 45.3%
- viability, T/C [21]: 46.7%
- viability, T/C [22]: 46.1%
- viability, T/C [23]: 45.7%
- viability, T/C [24]: 33.6%
- viability, T/C [25]: 31.1%
- viability, T/C [26]: 31.4%
- viability, T/C [27]: 32.7%
- viability, T/C [28]: 31.7%
- viability, T/C [29]: 27.6%
- viability, T/C [30]: 26.7%
- viability, T/C [31]: 24.8%
- viability, T/C [32]: 24.3%
- viability, T/C [33]: 23.2%
- viability, T/C [34]: 26.3%
- viability, T/C [35]: 29.3%
- viability, T/C [36]: 25.7%

Compound: CC(Cn1ccc(-c2ccc(C#N)c(Cl)c2)n1)NC(=O)c1cc(C(C)O)[nH]n1 (stereo not drawn) + COc1c(OCCCN2CCOCC2)ccc2c3n(c(=NC(=O)c4cnc(N)nc4)nc12)CCN3
- IC50 (second compound 0.00316 µM): > 10 µM
- IC50 (second compound 0.01 µM): > 10 µM
- IC50 (second compound 0.0316 µM): > 10 µM
- IC50 (second compound 0.1 µM): < 0.0316 µM
- IC50 (second compound 0.316 µM): < 0.0316 µM
- IC50 (second compound 1 µM): < 0.0316 µM
- viability, T/C [1]: 90%
- viability, T/C [2]: 93.5%
- viability, T/C [3]: 106%
- viability, T/C [4]: 96.9%
- viability, T/C [5]: 91.9%
- viability, T/C [6]: 84.2%
- viability, T/C [7]: 76.8%
- viability, T/C [8]: 83.2%
- viability, T/C [9]: 80.1%
- viability, T/C [10]: 82.6%
- viability, T/C [11]: 77.6%
- viability, T/C [12]: 67.9%
- viability, T/C [13]: 60.8%
- viability, T/C [14]: 63.9%
- viability, T/C [15]: 60.8%
- viability, T/C [16]: 62.5%
- viability, T/C [17]: 55%
- viability, T/C [18]: 46.2%
- viability, T/C [19]: 44.4%
- viability, T/C [20]: 47.1%
- viability, T/C [21]: 44.1%
- viability, T/C [22]: 47.3%
- viability, T/C [23]: 45.1%
- viability, T/C [24]: 37.6%
- viability, T/C [25]: 31.6%
- viability, T/C [26]: 30.3%
- viability, T/C [27]: 31.4%
- viability, T/C [28]: 32%
- viability, T/C [29]: 29.6%
- viability, T/C [30]: 26.1%
- viability, T/C [31]: 24.4%
- viability, T/C [32]: 24.8%
- viability, T/C [33]: 24.6%
- viability, T/C [34]: 25.3%
- viability, T/C [35]: 24.8%
- viability, T/C [36]: 22.4%

Compound: Cn1ncc(Cl)c1-c1cc(C(=O)NC(CN)Cc2cccc(F)c2)sc1Cl (stereo not drawn) + COc1c(OCCCN2CCOCC2)ccc2c3n(c(=NC(=O)c4cnc(N)nc4)nc12)CCN3
- IC50 (second compound 0.00316 µM): 2.62 µM
- IC50 (second compound 0.01 µM): 2.08 µM
- IC50 (second compound 0.0316 µM): 1.04 µM
- IC50 (second compound 0.1 µM): < 0.0316 µM
- IC50 (second compound 0.316 µM): < 0.0316 µM
- IC50 (second compound 1 µM): < 0.0316 µM
- viability, T/C [1]: 99.2%
- viability, T/C [2]: 93.8%
- viability, T/C [3]: 84.5%
- viability, T/C [4]: 72%
- viability, T/C [5]: 44.6%
- viability, T/C [6]: 25.7%
- viability, T/C [7]: 78.6%
- viability, T/C [8]: 83.1%
- viability, T/C [9]: 74.2%
- viability, T/C [10]: 63.7%
- viability, T/C [11]: 42.3%
- viability, T/C [12]: 25.4%
- viability, T/C [13]: 60.2%
- viability, T/C [14]: 61.5%
- viability, T/C [15]: 60.8%
- viability, T/C [16]: 48.9%
- viability, T/C [17]: 34.8%
- viability, T/C [18]: 19.6%
- viability, T/C [19]: 48.2%
- viability, T/C [20]: 47.5%
- viability, T/C [21]: 46%
- viability, T/C [22]: 40.7%
- viability, T/C [23]: 29.9%
- viability, T/C [24]: 17.4%
- viability, T/C [25]: 32.5%
- viability, T/C [26]: 33.6%
- viability, T/C [27]: 29.9%
- viability, T/C [28]: 29.2%
- viability, T/C [29]: 20.9%
- viability, T/C [30]: 13.9%
- viability, T/C [31]: 25.8%
- viability, T/C [32]: 24.8%
- viability, T/C [33]: 24.4%
- viability, T/C [34]: 23.4%
- viability, T/C [35]: 22.2%
- viability, T/C [36]: 20.8%

Compound: Cn1nccc1Nc1nccc(-c2ccn(C(CO)c3ccc(Cl)c(F)c3)c(=O)c2)n1 (stereo not drawn) + COc1c(OCCCN2CCOCC2)ccc2c3n(c(=NC(=O)c4cnc(N)nc4)nc12)CCN3
- IC50 (second compound 0.00316 µM): 0.467 µM
- IC50 (second compound 0.01 µM): 0.222 µM
- IC50 (second compound 0.0316 µM): 0.0482 µM
- IC50 (second compound 0.1 µM): < 0.0316 µM
- IC50 (second compound 0.316 µM): < 0.0316 µM
- IC50 (second compound 1 µM): < 0.0316 µM
- viability, T/C [1]: 74.5%
- viability, T/C [2]: 69.9%
- viability, T/C [3]: 48.3%
- viability, T/C [4]: 44%
- viability, T/C [5]: 37.7%
- viability, T/C [6]: 28%
- viability, T/C [7]: 65.9%
- viability, T/C [8]: 58.6%
- viability, T/C [9]: 46%
- viability, T/C [10]: 34.8%
- viability, T/C [11]: 28.3%
- viability, T/C [12]: 23.5%
- viability, T/C [13]: 50.3%
- viability, T/C [14]: 48.9%
- viability, T/C [15]: 41.8%
- viability, T/C [16]: 32.5%
- viability, T/C [17]: 26.6%
- viability, T/C [18]: 20.4%
- viability, T/C [19]: 41.6%
- viability, T/C [20]: 34.3%
- viability, T/C [21]: 29.3%
- viability, T/C [22]: 25.9%
- viability, T/C [23]: 22.4%
- viability, T/C [24]: 13.1%
- viability, T/C [25]: 25.8%
- viability, T/C [26]: 22.8%
- viability, T/C [27]: 17.8%
- viability, T/C [28]: 17%
- viability, T/C [29]: 13.2%
- viability, T/C [30]: 8.91%
- viability, T/C [31]: 20.8%
- viability, T/C [32]: 16.8%
- viability, T/C [33]: 13.8%
- viability, T/C [34]: 12.7%
- viability, T/C [35]: 10.5%
- viability, T/C [36]: 7.95%
